{"source": "PubChem BioAssay AID2060349", "about": "(Molecular Pharmacology Branch, DTP, NCI, 2025);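 further: spheroids exposed to drug for 7 days before readout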;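 on viability, T/C: 100% = DMSO vehicle control wells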", "test_system": "762968-020-R-J2-PDC spheroids viability", "assay": "Anticancer human tumor 762968-020-R-J2-PDC patient-derived colon carcinoma cell line growth inhibition [TAK]", "conditions": "spheroids with HUVEC and MSC; for IC50: curve of first compound; for viability, T/C: stronger effect = lower value", "description": "Combinatorial screen of targeted agents with TAK-243 and ipatasertib in multi-cell type tumor spheroids\nA high-throughput screen of multi-cell type tumor spheroids was designed to identify active combinations of targeted small molecules and TAK-243 or ipatasertib. Complex spheroids include a stromal component modeled by human endothelial cells (HUVEC) and fibroblasts modeled by human mesenchymal stem cells (MSCs). The concentration ranges selected for each drug and investigational agent were based upon clinically achievable concentrations if the clinical Cmax of the agent was known.\nCompounds. The drugs and investigational agents: TAK-243 (785004), ipatasertib (767898), everolimus (733504), selumetinib (741078), bortezomib (756655), trametinib (758246), ixazomib (758254), vemurafenib (761431), dabrafenib (764134), sapanisertib (764658), alpelisib (765974), and copanlisib (816437), were obtained from the National Cancer Institute (NCI) Developmental Therapeutics Program Chemical Repository. The FDA-approved anticancer drug set is available from the NCI Developmental Therapeutics Program. […] The stock solutions were prepared in dimethyl sulfoxide (DMSO, Sigma-Aldrich, St. Louis, MO, cat. D2650) at 800-fold the tested concentration and stored at -70 degrees C prior to their use. All drugs and investigational agents were tested over a range starting from a high concentration at or near the clinical Cmax and decreasing in half-log increments. If the clinical Cmax for an agent had not been determined, the highest concentration tested was 10 microM.\nNCI60 Cell Culture. NCI60 cell lines were obtained from the NCI Developmental Therapeutics Program Tumor Repository. For each lot of cells, the Repository performed Applied Biosystems AmpFLSTR Identifiler testing with PCR amplification to confirm consistency with the published Identifier STR profile for each cell line. Cells were kept in continuous culture for no more than 20 passages. The optimal seeding densities for each of the cell lines at each time point assessed were determined prior to performing the concentration response studies. Briefly, the NCI60 human tumor lines were grown as monolayers in RPMI 1640 medium supplemented with 10% FBS and 2 mmol/L L-glutamine.\nAn additional 2 lines were from the NCI60 cell line panel including melanomas, MALME-3M and SK-MEL-2. Pooled donor human umbilical vein endothelial cells (HUVEC, Lonza, cat. CC-2519) and human mesenchymal stem cells (hMSC, Lonza, cat. PT-2501) were purchased from Lonza (Walkersville, MD).\nPDMR cell lines were grown in complete medium (DC medium): Dulbecco's modified Eagle's medium (DMEM)/F12 supplemented with 5% fetal bovine serum (FBS), 2 mM L-glutamine, 100 U/mL penicillin and 100 µg/ml streptomycin, 0.4 µg/ml hydrocortisone, 10 ng/ml epidermal growth factor (EGF) recombinant human protein, 24 µg/mL adenine, and 0.1 mg/mL primocin. During culture from frozen stock vials, PDMR cells were cultured in the same medium containing 10 µM Y-27632 (see Table 3). The PDCs were cultured in complete DMEM/F12 media without 10 microM Y-27632 dihydrochloride for at least two passages prior to the screen. The pooled donor HUVEC and hMSC were cultured in endothelial cell growth medium 2 (PromoCell, Heidelberg, Germany, cat. C-22011) and mesenchymal stem cell growth medium 2 (PromoCell, cat. C-28009), respectively. For all experiments, HUVEC and hMSC were used at passages </=5.\nFor the pre-screen, cell seeding densities were determined from a titration spanning the range from 5,000 to 313 cells per well. The mct-spheroids including 60% malignant cells, 25% HUVEC and 15% MSC dispensed as a mixture into U-bottom Ultra-Low Attachment 384-well plates (Corning, NY)\nHigh-throughput Drug Combination Screening.\nPrior to their inoculation into 384-well plates, malignant cells, HUVEC, and hMSC were removed from T flasks using TrypLE express (Thermo Fisher Scientific, cat. 12605036) and harvested by centrifugation for 5 min at 233 x g. […]", "data": [{"smiles": "CC(C)CC(NC(=O)C(Cc1ccccc1)NC(=O)c1cnccn1)B(O)O", "note": "(stereo not given) + CC(C)NCC(C(=O)N1CCN(c2ncnc3c2C(C)CC3O)CC1)c1ccc(Cl)cc1", "values": [{"measurement": "IC50", "setting": "second compound 0.3 µM", "value": "> 10", "unit": "nM"}, {"measurement": "IC50", "setting": "second compound 0.949 µM", "value": "> 10", "unit": "nM"}, {"measurement": "IC50", "setting": "second compound 3 µM", "value": "> 10", "unit": "nM"}, {"measurement": "IC50", "setting": "second compound 9.49 µM", "value": "> 10", "unit": "nM"}, {"measurement": "IC50", "setting": "second compound 30 µM", "value": "> 10", "unit": "nM"}, {"measurement": "viability, T/C", "setting": "second compound 0.3 µM, first compound 31.6 pM", "value": 101, "unit": "%"}, {"measurement": "viability, T/C", "setting": "second compound 0.3 µM, first compound 0.0001 µM", "value": 101, "unit": "%"}, {"measurement": "viability, T/C", "setting": "second compound 0.3 µM, first compound 0.000316 µM", "value": 108, "unit": "%"}, {"measurement": "viability, T/C", "setting": "second compound 0.3 µM, first compound 0.001 µM", "value": 102, "unit": "%"}, {"measurement": "viability, T/C", "setting": "second compound 0.3 µM, first compound 0.00316 µM", "value": 98.3, "unit": "%"}, {"measurement": "viability, T/C", "setting": "second compound 0.3 µM, first compound 0.01 µM", "value": 98.1, "unit": "%"}, {"measurement": "viability, T/C", "setting": "second compound 0.949 µM, first compound 31.6 pM", "value": 103, "unit": "%"}, {"measurement": "viability, T/C", "setting": "second compound 0.949 µM, first compound 0.0001 µM", "value": 102, "unit": "%"}, {"measurement": "viability, T/C", "setting": "second compound 0.949 µM, first compound 0.000316 µM", "value": 96.1, "unit": "%"}, {"measurement": "viability, T/C", "setting": "second compound 0.949 µM, first compound 0.001 µM", "value": 100, "unit": "%"}, {"measurement": "viability, T/C", "setting": "second compound 0.949 µM, first compound 0.00316 µM", "value": 105, "unit": "%"}, {"measurement": "viability, T/C", "setting": "second compound 0.949 µM, first compound 0.01 µM", "value": 85.5, "unit": "%"}, {"measurement": "viability, T/C", "setting": "second compound 3 µM, first compound 31.6 pM", "value": 108, "unit": "%"}, {"measurement": "viability, T/C", "setting": "second compound 3 µM, first compound 0.0001 µM", "value": 109, "unit": "%"}, {"measurement": "viability, T/C", "setting": "second compound 3 µM, first compound 0.000316 µM", "value": 106, "unit": "%"}, {"measurement": "viability, T/C", "setting": "second compound 3 µM, first compound 0.001 µM", "value": 98.8, "unit": "%"}, {"measurement": "viability, T/C", "setting": "second compound 3 µM, first compound 0.00316 µM", "value": 106, "unit": "%"}, {"measurement": "viability, T/C", "setting": "second compound 3 µM, first compound 0.01 µM", "value": 89, "unit": "%"}, {"measurement": "viability, T/C", "setting": "second compound 9.49 µM, first compound 31.6 pM", "value": 98.5, "unit": "%"}, {"measurement": "viability, T/C", "setting": "second compound 9.49 µM, first compound 0.0001 µM", "value": 98.7, "unit": "%"}, {"measurement": "viability, T/C", "setting": "second compound 9.49 µM, first compound 0.000316 µM", "value": 99.3, "unit": "%"}, {"measurement": "viability, T/C", "setting": "second compound 9.49 µM, first compound 0.001 µM", "value": 104, "unit": "%"}, {"measurement": "viability, T/C", "setting": "second compound 9.49 µM, first compound 0.00316 µM", "value": 98.9, "unit": "%"}, {"measurement": "viability, T/C", "setting": "second compound 9.49 µM, first compound 0.01 µM", "value": 97.5, "unit": "%"}, {"measurement": "viability, T/C", "setting": "second compound 30 µM, first compound 31.6 pM", "value": 87.7, "unit": "%"}, {"measurement": "viability, T/C", "setting": "second compound 30 µM, first compound 0.0001 µM", "value": 91.9, "unit": "%"}, {"measurement": "viability, T/C", "setting": "second compound 30 µM, first compound 0.000316 µM", "value": 87.4, "unit": "%"}, {"measurement": "viability, T/C", "setting": "second compound 30 µM, first compound 0.001 µM", "value": 85.4, "unit": "%"}, {"measurement": "viability, T/C", "setting": "second compound 30 µM, first compound 0.00316 µM", "value": 95.3, "unit": "%"}, {"measurement": "viability, T/C", "setting": "second compound 30 µM, first compound 0.01 µM", "value": 87.2, "unit": "%"}]}, {"smiles": "Cn1cnc2c(F)c(Nc3ccc(Br)cc3Cl)c(C(=O)NOCCO)cc21", "note": "+ CC(C)NCC(C(=O)N1CCN(c2ncnc3c2C(C)CC3O)CC1)c1ccc(Cl)cc1", "values": [{"measurement": "IC50", "setting": "second compound 0.3 µM", "value": 2350, "unit": "nM"}, {"measurement": "IC50", "setting": "second compound 0.949 µM", "value": "> 3000", "unit": "nM"}, {"measurement": "IC50", "setting": "second compound 3 µM", "value": "> 3000", "unit": "nM"}, {"measurement": "IC50", "setting": "second compound 9.49 µM", "value": "> 3000", "unit": "nM"}, {"measurement": "IC50", "setting": "second compound 30 µM", "value": "> 3000", "unit": "nM"}, {"measurement": "viability, T/C", "setting": "second compound 0.3 µM, first compound 0.00949 µM", "value": 94.6, "unit": "%"}, {"measurement": "viability, T/C", "setting": "second compound 0.3 µM, first compound 0.03 µM", "value": 95.5, "unit": "%"}, {"measurement": "viability, T/C", "setting": "second compound 0.3 µM, first compound 0.0949 µM", "value": 89.6, "unit": "%"}, {"measurement": "viability, T/C", "setting": "second compound 0.3 µM, first compound 0.3 µM", "value": 84.2, "unit": "%"}, {"measurement": "viability, T/C", "setting": "second compound 0.3 µM, first compound 0.949 µM", "value": 69.9, "unit": "%"}, {"measurement": "viability, T/C", "setting": "second compound 0.3 µM, first compound 3 µM", "value": 44.5, "unit": "%"}, {"measurement": "viability, T/C", "setting": "second compound 0.949 µM, first compound 0.00949 µM", "value": 103, "unit": "%"}, {"measurement": "viability, T/C", "setting": "second compound 0.949 µM, first compound 0.03 µM", "value": 97.5, "unit": "%"}, {"measurement": "viability, T/C", "setting": "second compound 0.949 µM, first compound 0.0949 µM", "value": 87, "unit": "%"}, {"measurement": "viability, T/C", "setting": "second compound 0.949 µM, first compound 0.3 µM", "value": 83.4, "unit": "%"}, {"measurement": "viability, T/C", "setting": "second compound 0.949 µM, first compound 0.949 µM", "value": 74.8, "unit": "%"}, {"measurement": "viability, T/C", "setting": "second compound 0.949 µM, first compound 3 µM", "value": 50.5, "unit": "%"}, {"measurement": "viability, T/C", "setting": "second compound 3 µM, first compound 0.00949 µM", "value": 106, "unit": "%"}, {"measurement": "viability, T/C", "setting": "second compound 3 µM, first compound 0.03 µM", "value": 97.7, "unit": "%"}, {"measurement": "viability, T/C", "setting": "second compound 3 µM, first compound 0.0949 µM", "value": 95.2, "unit": "%"}, {"measurement": "viability, T/C", "setting": "second compound 3 µM, first compound 0.3 µM", "value": 85.8, "unit": "%"}, {"measurement": "viability, T/C", "setting": "second compound 3 µM, first compound 0.949 µM", "value": 72.2, "unit": "%"}, {"measurement": "viability, T/C", "setting": "second compound 3 µM, first compound 3 µM", "value": 58.4, "unit": "%"}, {"measurement": "viability, T/C", "setting": "second compound 9.49 µM, first compound 0.00949 µM", "value": 96.5, "unit": "%"}, {"measurement": "viability, T/C", "setting": "second compound 9.49 µM, first compound 0.03 µM", "value": 83.7, "unit": "%"}, {"measurement": "viability, T/C", "setting": "second compound 9.49 µM, first compound 0.0949 µM", "value": 80.6, "unit": "%"}, {"measurement": "viability, T/C", "setting": "second compound 9.49 µM, first compound 0.3 µM", "value": 79.1, "unit": "%"}, {"measurement": "viability, T/C", "setting": "second compound 9.49 µM, first compound 0.949 µM", "value": 66.3, "unit": "%"}, {"measurement": "viability, T/C", "setting": "second compound 9.49 µM, first compound 3 µM", "value": 55.8, "unit": "%"}, {"measurement": "viability, T/C", "setting": "second compound 30 µM, first compound 0.00949 µM", "value": 82.7, "unit": "%"}, {"measurement": "viability, T/C", "setting": "second compound 30 µM, first compound 0.03 µM", "value": 85.3, "unit": "%"}, {"measurement": "viability, T/C", "setting": "second compound 30 µM, first compound 0.0949 µM", "value": 83.2, "unit": "%"}, {"measurement": "viability, T/C", "setting": "second compound 30 µM, first compound 0.3 µM", "value": 79, "unit": "%"}, {"measurement": "viability, T/C", "setting": "second compound 30 µM, first compound 0.949 µM", "value": 70.5, "unit": "%"}, {"measurement": "viability, T/C", "setting": "second compound 30 µM, first compound 3 µM", "value": 57.8, "unit": "%"}]}]}
